These results are taken from patent US20170204076A1, “SYNTHESIS AND USE OF AMINO LIPIDS” (INCELLA GMBH, priority 2014, published 2017).

One series relates to HEK 293 cells. Briefly: Primary screen of lipid reagents: plasmid DNA transfection, YFP fluorescence relative to total cell number (Hoechst). The format is cell-based. Particulars: for cell toxicity: Hoechst stained apoptotic nuclei, microscope images; for transfection efficiency: HEK 293 cells, plasmid DNA (YFP), 20 to 24 hours after transfection. An excerpt:
Cell line: HEK 293 cells Screen format: 96-well Detection (read-out): YFP fluorescence relative to total cell number (total cell number assessed using the nuclear dye, Hoechst—see FIGS. 1 and 2)
A commercially available liposomal transfection reagent was used as a reference (reference reagent) according to manufacturers' instructions, see FIGS. 1 and 2.
All steps performed in 96 tube/plate format using 8- or 12-channel multi-pipettes. Amounts shown are for duplicate (2×) wells of a 96-well plate.
1. 0.8 μl lipid reagents diluted in 20 μl 50 mmol/l NaOAc buffer, pH 5.0. 2. Diluted lipid reagents from (1) were added to 150 ng DNA (25 ng pH2B-YFP+125 ng pCS-LacZ plasmids) in 20 μl NaOAc buffer, pH 5.0 and mixed with pipette action. 3. After 30 min incubation at RT, added 100 μl freshly resuspended cells (5×10^4 cells/well DMEM culture medium supplemented with 10% fetal calf serum) and mixed with pipette. 4. Duplicate 65 μl aliquots of the cells+lipid/DNA complexes were immediately transferred to separate wells of a 96-well culture plate and placed in 37° C. incubator with 5% CO2. 5. 20 to 24 hours after initial transfection of cells, Hoechst 33258 dye was added to cells at a final concentration of 0.2 μg/ml and cells incubated for a further 30 min at 37° C. Cells were then placed on an inverted microscope and 2 independent sets of images of the cells captured from each well as shown in FIGS. 1 and 2.
For each sample, 3 images were captured: bright field image of cells (FIGS. 1 and 2 upper panels), Hoechst dye stained image of total cell nuclei (FIGS. 1 and 2 middle panels) and YFP images showing cells successfully transfected with plasmid DNA and expressing YFP protein (FIGS. 1 and 2 lower panels). Microscope images of transfected HEK 293 cells, showing both the transfection efficiency and toxicity level of two of our lipid molecules (#30 and #60) compared to a commonly used commercial transfection reagent (reference reagent).

Series [1] concerns mouse embryonic fibroblast (MEF) cells. Kind of series: Transfection of LRP6 siRNA in MEF cells, Western Blot of LRP6 protein. It counts as cell-based. Particulars: for siRNA mediated gene silencing compared with the commercial reagent A: LRP6 siRNA, MEF cells cultured for 24 hours, Western Blot; for ability to deliver siRNA molecules to cells: see FIGS. 5 and 6. As for the experimental part:
In order to screen for this two different types of cells were used to test the ability of our lipid reagents to deliver siRNA targeting Low density lipoprotein receptor related protein 6 (LRP6). This is a 200 kD single-pass transmembrane receptor for Wnt ligands and activates the Wnt/b-catenin signalling pathway. It is expressed at relatively high levels in MEF cells.
Assay: Transfection of siRNA in mouse embryonic fibroblast (MEF) cells
All steps performed in 0.2 ml PCR tubes and 96 well plate format. Amounts shown are for one well of a 96-well plate.
1. 0.25 μl lipid reagents diluted in 8 μl 50 mmol/l NaOAc buffer, pH 5.0. 2. Diluted lipid reagents from (1) added to 1 pmol (0.2 μl of 5 μmol/1) siRNA molecules in 8 μl NaOAc buffer, pH 5.0 and mixed with pipette action. The siRNA molecules used had either a scrambled sequence not specific for any known gene (Con siRNA), or a sequence specifically targeting the endogenous mRNA from the LRP6 gene (LRP6 siRNA). 3. After 30 min incubation at RT, added 50 μl freshly resuspended cells (2×10^4 cells/well DMEM culture medium supplemented with 10% fetal calf serum) in one well of a 96-well plate and placed in 37° C. incubator with 5% CO2. 4. 24 hours after initial transfection, cells, were lysed in 25 μl detergent buffer (50 mmol/l Tris, 1% Triton X-100, 0.15 mol/l NaCl, pH 7.0, containing protease and phosphatase inhibitors), spun to remove insoluble cell debris and […] clarified lysates added to 10 μl of 4× SDS loading buffer (250 mmol/l Tris HCl, 40% Glycerol, 8% SDS, 0.01% Bromophenol Blue, 5% 2-Mercaptoethanol, pH 6.8). 5. Samples were denatures by heating at 96° C. for 2 min and 12 μl loaded on a 9% SDS-PAGE gels for separation of proteins according to molecular weight. Separated proteins were transferred from the SDS-PAGE gel to nitrocellulose membrane for Western Blot (WB) analysis. 6. WB was performed using an automated BioLane HTI instrument using antibodies against LRP6 and α-tubublin proteins. HRP linked secondary antibodies and chemiluminescence were used to detect the proteins on the membrane.
FIGS. 5 and 6 show the Western Blot (WB) analysis of LRP6 protein from total lysates of MEF (mouse embryonic fibroblast) cells transfected with the indicated siRNA molecules and cultured for 24 hours.
Background: A western blot detects proteins with antibodies after separation by electrophoresis.

On to `CCCCCCCCCCCSCC(CNC(=O)NCCN(C)C)SCCCCCCCCCCC` (stereo not shown) [Example 24, 1-(2,3-bis(undecylthio)propyl)-3-(2-(dimethylamino)ethyl)urea], for which the cell toxicity result in the series with HEK 293 cells is on record as “very low toxicity”. In addition, in series [1], the “siRNA mediated gene silencing compared with the commercial reagent A” value is “quite effective” and the “ability to deliver siRNA molecules to cells” value is listed as “very efficiently deliver siRNA molecules to cells”.

With `CCCCCCCCCCCSCC(CNC(=O)NCCCN(CC)CC)SCCCCCCCCCCC` (stereo not shown) [Example 30, 1-(2,3-bis(undecylthio)propyl)-3-(3-(diethylamino)propyl)urea], in the series with HEK 293 cells, the transfection efficiency entry is recorded as “approximately 90%” and the cell toxicity entry is “low cell toxicity”.

In the case of `CCCCCCCCCCCCSCC(COCC(O)CNCCCN(CC)CC)SCCCCCCCCCCCC` (stereo not shown) [Example 60, 13-(dodecylthio)-3-ethyl-11-oxa-15-thia-3,7-diazaheptacosan-9-ol], in the series on HEK 293 cells, the transfection efficiency result is listed as “approximately 90%” and the cell toxicity entry is “low cell toxicity”.

Turning to `CCCCCCCCCCCSCC(COCC(O)CNCCN(CC)CC)SCCCCCCCCCCC` (stereo not shown) [Example 64, 3-ethyl-12-(undecylthio)-10-oxa-14-thia-3,6-diazapentacosan-8-ol], the cell toxicity result in the series on HEK 293 cells is recorded as “very low toxicity”. In series [1], the “siRNA mediated gene silencing compared with the commercial reagent A” value is on record as “quite effective” and the “ability to deliver siRNA molecules to cells” value is “very efficiently deliver siRNA molecules to cells”.
